# According to patent publication US4199579A, “Carbamates of 2-haloergolines and 2-haloergolenes and process for the preparation thereof” (priority 1975, dated 1980):
# Where a name gives a salt, the structure may show the parent alone. Read-outs that look alike come from different tables or passages of the source.
# What was measured:
# [1] = test system: alpha-adrenergic receptors; assay: Antiadrenalic (antiadrenergic) activity in vitro (a): antagonism of the spasmogenic effect of adrenaline on the seminal vesicle; format: cell-based, guinea pig
# Excerpt: More particularly the novel compounds display a vasodilatory activity on the peripheral circulatory system, an hypotensive activity and a spasmolytic effect on the gastrointestinal smooth muscles or a blocking activity towards the alpha-adrenergic receptors, both in "vitro" and in "vivo".
# (a) J. Brugger, Helv. Physiol. Pharmacol. Acta 3, 117 (1945)
# The product is antagonizing the spasmogenic effect of the adrenaline on the seminal vesicle of guinea pig at concentrations of between 0.1 and 10 pg/ml, as well as the vaso- constricting effect of the noradrenaline on the isolated and perfused caudal arteria of rat, at dosages of between 1 and 10 μg total. Furthermore it antagonizes the contracturing effect of adrenaline and noradrenaline on the "vas deferens" of guinea pig and rat, at concentrations of 0.1 to 10 ng/ml.
# [2] = test system: alpha-adrenergic receptors; assay: Antiadrenalic activity in vivo (b): protection of rats from the lethal effect of adrenaline; design: species or system rat; conditions: for Antiadrenalic activity (b) vivo ED50: Table 2; for ED50 protecting rats from the lethal effect of adrenaline / activity higher than that of nicergoline: rat
# [3] = test system: isolated ileum of guinea pig; assay: AntiBaCl2 activity in vitro (c): antagonism of the spasmogenic action of barium chloride on the isolated ileum; format: cell-based; conditions: Cavia porcellus, read-out: AntiBaCl2 (c) vitro EC50
# Experimental: (c) Magnus, Pflugers Arch.Ges.Physiol. 102, 123 (1904)
# The substance antagonizes the spasmogenic action of the barium chloride on the isolated ileum of guinea pig at dosages of between 1 and 5 μg/ml. […] On the isolated caudal arteria of rat, the compound II inhibits the vaso-constricting effect as caused by the perfusion with hyperpotassium Ringer's solution.
# Acute toxicity in mice = format: in vivo, mouse; conditions: mouse, in vivo, mouse
# Excerpt: (§1) |Toxicity LD50 mice orally
# [4] = biological target: alpha-adrenergic receptors; conditions: in vitro; comparison compound, reference (d) or (e); cited from earlier work
# [5] = test system: alpha-adrenergic receptors; conditions: e.v.; comparison compound, reference (e); cited from earlier work
# ptosis from reserpine = assay: Antagonism to ptosis from reserpine; format: in vivo; conditions: po, read-out: Antagonism to ptosis from reserpine ED100
# Antidepressant activity = assay: Antidepressant activity; format: in vivo; conditions: route not given
# Excerpt: (§2) Coming now to examining the anti-asthmatic pharmaceutical compositions it has been ascertained that the compound described as D-2-bromo-6-methyl-8beta-(morpholinocarbolynoxymethyl)-ergoline, corresponding to the formula (4) is endowed with quite special [drawing 81] which render it particularly recommendable for the therapy of asthma. The compound of the formula (4) has the empirical formula C21 H26 N3 O3 Br and a mol. wt. of 448.38. It gives, with mineral and organic acid of nontoxic and pharmacologically acceptable nature, a number of salt. These are soluble in water as well as in the physiological solutions. Such are for example the maleate C25 H30 N3 O7 Br, m.p. 213° C.-216° C., or the methanesulfonate C22 H30 N3 O6 BrS, m.p. 265° C.-266° C. and can be prepared according to the conventional methods by treating the compound (4) with the equivalent quantities of the acid in an aqueous medium or in appropriate organic solvents and their mixtures such as the alcohols, the ethers, the lower aliphatic ketones and others, taken individually or in appropriate mixtures with each other as will be detailed in the Examples hereinafter. The pharmacological activity of the compound of formula (4) is unfolded in appropriate assays, carried out on the test animals and is especially conspicuous in the following test runs: […]
# Anorexia = assay: Anorexia; format: in vivo; conditions: po; orally
# Myorelaxing activity = assay: Myorelaxing activity; format: in vivo; conditions: route not given
# Excerpt: as §2
# mice = assay: Acute toxicity in mice; format: in vivo, mouse; conditions: acute toxicity
# Excerpt: as §1
# Anti-Parkinson activity = assay: Anti-Parkinson activity; format: in vivo; conditions: po; orally
# [6] = test system: alpha-adrenergic receptors; assay: Protection of mice from the lethal effect of adrenaline; format: in vivo; conditions: mouse
# anaesthetized cat = assay: Arterial pressure in the anaesthetized cat; format: in vivo; conditions: Felis catus, iv, e.v., read-out: dosage from which arterial pressure is reduced
# Experimental: (§3) In the anaesthetized cat and rat, the compound causes the arterial pressure to be reduced, starting from dosages of 50 and 30 μg/kg e.v. respectively. In the "pithed" rat the compound, when intravenously administered, antagonizes the hypertensive effect of the adrenaline (ED-50 46 mg/kg).
# anaesthetized rat = assay: Arterial pressure in the anaesthetized rat; format: in vivo; conditions: iv, e.v., read-out: dosage from which arterial pressure is reduced
# Experimental: as §3
# "pithed" rat = assay: Antagonism of the hypertensive effect of adrenaline in the pithed rat; format: in vivo; conditions: iv, intravenously, read-out: ED-50 antagonizing the hypertensive effect of adrenaline
# Experimental: as §3
# acetylcholine = assay: Anti-acetylcholinic activity in vitro; format: cell-based; conditions: ratio to alpha-blocking concentration
# histamine = assay: Anti-histaminic activity in vitro; format: cell-based; conditions: ratio to alpha-blocking concentration
# serotonin = assay: Anti-serotoninic activity in vitro; format: cell-based; conditions: ratio to alpha-blocking concentration
# Beagle dogs = assay: 7-month oral administration to Beagle dogs; format: in vivo, dog; conditions: 7 months, about 8 mg/kg per oral route
# [7] = test system: central nervous system (CNS); assay: CNS behaviour tests (swimming of the rat, reserpine ptosis, tetrabenazine catatonia, motility and exploration, behaviour); format: in vivo, rat; mouse; rabbit; dog
# Excerpt: The compound belongs to the class of the ergolene derivatives in which substances are found which cause stimulating effects on the central nervous system (CNS); several behaviour tests have been carried out on animals, in order to assess a possible exciting and hallucinogen action.
# [8] = iv, e.v., Table 2, read-out: DL50 e.v. in the mouse
Compound,Antiadrenalic activity (a) vitro EC50 [1] [ng/mL],Antiadrenalic activity (b) vivo ED50 ([2]; e.v.) [mg/kg],EC50 [3] [µg/mL],LD50 (Acute toxicity in mice; [8]) [mg/kg],other results
"CN1C[C@H](COC(=O)N2CCCCC2)C[C@@H]2c3cccc4[nH]c(Br)c(c34)C[C@H]21 [Example 12, D-2-bromo-6-methyl-8beta-(piperidinocarbonyloxymethyl)-ergoline]",3.7,0.0202,3.5,50,–
dihydroergotoxine,–,–,–,–,Antiadrenalic activity (a) vitro EC50 [4]: 0.078 µg/mL; Antiadrenalic activity (b) vivo ED50 [5]: 0.05 mg/kg
"CN1C[C@H](COC(=O)N2CC3CCC(CC3)C2)C[C@@H]2c3cccc4[nH]c(Br)c(c34)C[C@H]21 [Example 20, D-2-bromo-6-methyl-8beta-(3-azabicyclo [3,2, 2]-nonanylcarbonyloxymethyl)-ergoline]",375,0.198,> 100,50,–
"CN1C[C@H](COC(=O)N2CCC2)C[C@@H]2c3cccc4[nH]c(Br)c(c34)C[C@H]21 [Example 7, D-2-bromo-6-methyl-8beta-(azetidinylcarbonyloxymethyl)-ergoline]",5,0.05,1.4,8.7,–
"CN1C[C@H](COC(=O)N2CCCC2)C[C@@H]2c3cccc4[nH]c(Br)c(c34)C[C@H]21 [Example 10, D-2-bromo-6-methyl-8beta-(pyrrolydycarbonyloxy-methyl)-ergoline maleate]",2,0.0155,4,15,–
"CN(C)CCCN1c2ccccc2CCc2ccccc21 [imipramine, reference compound]",–,–,–,–,ED100 (ptosis from reserpine; orally): 25 mg/kg; ED100 (Antidepressant activity): 25 mg/kg
"CC(N)Cc1ccccc1 (centres unmarked) [amphetamine, reference compound]",–,–,–,–,ED100 (Anorexia): 5 mg/kg
"CCN(CC)C(=O)OC[C@@H]1C[C@@H]2c3cccc4[nH]c(Br)c(c34)C[C@H]2N(C)C1 [Example 6, D-2-bromo-6-methyl-8beta-(N,N-diethylcarbamoyloxymethyl)-ergoline]",4.7,0.0803,3.8,13.7,–
"CCC1(c2ccccc2)C(=O)NC(=O)NC1=O [phenobarbital, reference compound]",–,–,–,–,ED100 (Myorelaxing activity): 100 mg/kg
"CN1CCN(C(=O)OC[C@@H]2C[C@@H]3c4cccc5[nH]c(Br)c(c45)C[C@H]3N(C)C2)CC1 [Example 18, D-2-bromo-6-methyl-8beta-(4,methylpiperazinyl-carbonyloxymethyl)-ergoline]",50,> 0.32,> 100,27.3,–
"CO[C@]12C[C@@H](COC(=O)c3cncc(Br)c3)CN(C)[C@@H]1Cc1cn(C)c3cccc2c13 [nicergoline, reference compound]",–,–,–,74.3,EC50 ([3]; in vitro): 2.1 µg/mL; Antiadrenalic activity (a) vitro EC50 [4]: 0.007 µg/mL; Antiadrenalic activity (b) vivo ED50 [5]: 0.02 mg/kg
"CN(C)C(=O)OC[C@@H]1C[C@@H]2c3cccc4[nH]c(Br)c(c34)C[C@H]2N(C)C1 [Example 4, D-2-bromo-6-methyl-8beta-(N,N-dimethylcarbamoyloxymethyl)-ergoline]",10,0.0112,10,7.1,–
"CN1C[C@H](COC(=O)N2CCCCCC2)C[C@@H]2c3cccc4c3c(c(Br)n4C)C[C@H]21 [Example 14, D-2-bromo-1,6-dimethyl-8beta-(perhydroazepinylcarbonyloxymethyl) ergoline]",–,–,–,–,"LD50 (Acute toxicity in mice; iv, mice, intravenously, compound (3), read-out: Toxicity LD50 mice, intravenously): 65 to 83 mg/kg; LD50 (Acute toxicity in mice; po, mice, orally, compound (3), read-out: Toxicity LD50 mice, orally): 600 mg/kg; acute toxicity in words (mice): well tolerated and poorly toxic; ED100 (ptosis from reserpine): 0.01 mg/kg; ED100 (Anorexia): 5 mg/kg; ED100 (Anti-Parkinson activity): 20 mg/kg"
"CN1C[C@H](COC(=O)N2CCCCCC2)C[C@@H]2c3cccc4[nH]c(Br)c(c34)C[C@H]21 [Example 2, D-2-bromo-6-methyl-8beta-(perhydroazepinylcarbonyloxymethyl)-ergoline]",0.0017,0.008,3.1,39.4,"ED50 protecting rats from the lethal effect of adrenaline ([2]; e.v.): 0.008 mg/kg; activity higher than that of nicergoline ([2]; intravenously): 2.5 times; activity higher than that of nicergoline ([2]; orally): 24 times; ED50 protecting rats from the lethal effect of adrenaline ([2]; per os): 0.37 mg/kg; ED50 protecting mice from the lethal effect of adrenaline ([6]; e.v.): 0.051 mg/kg; ED50 protecting mice from the lethal effect of adrenaline ([6]; per os): 0.61 mg/kg; minimal effective dose (anaesthetized cat): ≥ 0.05 mg/kg; minimal effective dose (anaesthetized rat): ≥ 0.03 mg/kg; ED50 (""pithed"" rat): 0.046 mg/kg; anti-acetylcholinic activity: concentration higher than that showing the alpha-blocking effect (acetylcholine): 4500 times; anti-histaminic activity: concentration higher than that showing the alpha-blocking effect (histamine): 800 times; anti-serotoninic activity: concentration higher than that showing the alpha-blocking effect (serotonin): 200 times; macroscopic or microscopic alterations of the main organs (Beagle dogs): did not cause macroscopic or microscopic alterations; modifications of the weight, hematological and hematochemical parameters (Beagle dogs): did not cause modifications; ECG modifications ([7]; in vivo): ECG modifications of sedative type were always detected; exciting property in behaviour tests ([7]; rat, mice, rabbit, dog): no evidence were found of any exciting property"
"N[C@@H](Cc1ccc(O)c(O)c1)C(=O)O [L-dopa, reference compound]",–,–,–,–,ED100 (Anti-Parkinson activity): 300 mg/kg
